pIC50: −log10 of the molar value. Where “and” joins values, the source holds several entries; their conditions need not be identical. Identical values can stand only once. Calls of active or inactive are those of the source.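 Rule for the calls: active = mean IC50 of at most 10 µM; inactive = the rest.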
Test system: H9c2 cardiomyoblasts, H2O2 injury protection, ATPLite luminescence, 2 h
Assay: cardioprotective compounds against peroxide injury – H9c2 cells, H2O2, set 2, SAR follow-up (AID 624458)

Structure (SMILES)	pIC50	IC50
COc1cc(-c2cc(C(=O)Nc3cccc(C(C)=O)c3)c3cc(Cl)ccc3n2)cc(OC)c1OC	5.21	
COc1cc(-c2cc(C(=O)Nc3ccccc3)c3ccccc3n2)cc(OC)c1OC		10.1 µM (inactive)
CC(=O)c1cccc(NC(=O)c2cc(-c3ccccc3)nc3ccccc23)c1	5.15	
COc1ccc2c(c1OC)C(=O)N1c3ccccc3C(=O)N(Cc3ccccc3Cl)C21 (centres undefined)	5.92	
CCN(CC(=O)Nc1ccc(OC)cc1)C(=O)c1cc(-c2cc(OC)c(OC)c(OC)c2)nc2ccccc12	5.41	
COc1ccc2c(c1OC)C(=O)N1c3ccccc3C(=O)N(c3cccc(F)c3)C21 (centres undefined)	5.16	
COc1ccc2c(c1OC)C(=O)N1c3ccccc3C(=O)N(c3ccc(Br)cc3)C21 (centres undefined)	5.71	
COc1ccc(N2C(=O)c3ccccc3N3C(=O)c4c(ccc(OC)c4OC)C23)cc1 (centres undefined)		12.8 µM (inactive)
COc1cc(-c2cc(C(=O)Nc3cccc(Cl)c3)c3ccccc3n2)cc(OC)c1OC		58.4 µM (inactive)
COc1cccc(N2C(=O)c3ccccc3N3C(=O)c4ccccc4C23)c1 (centres undefined)		40.5 µM (inactive)
COc1cccc(-c2cc(C(=O)Nc3cccc(C(C)=O)c3)c3ccccc3n2)c1	5.17	
COc1cccc(N2C(=O)c3ccccc3N3C(=O)c4c(ccc(OC)c4OC)C23)c1 (centres undefined)	5.16	
CCOC(=O)c1cccc(NC(=O)c2cc(-c3cc(OC)c(OC)c(OC)c3)nc3ccccc23)c1	5.51	
COc1cccc(CNC(=O)c2cc(-c3cc(OC)c(OC)c(OC)c3)nc3ccccc23)c1	5.32	
COc1cc(-c2cc(C(=O)Nc3cccc(C)c3)c3ccccc3n2)cc(OC)c1OC		18.8 µM (inactive)
COc1ccc(NC(=O)c2cc(-c3cc(OC)c(OC)c(OC)c3)nc3ccccc23)cc1	5.13	
COc1ccc(-c2cc(C(=O)Nc3cccc(C(C)=O)c3)c3ccccc3n2)cc1	5.25	

Structure (SMILES)	pIC50	IC50
COc1ccc2c(c1OC)C(=O)N1c3ccccc3C(=O)N(Cc3cccc(Cl)c3)C21 (centres undefined)	5.53	
COc1ccc2c(c1OC)C(=O)N1c3ccccc3C(=O)N(c3cccc(C(F)(F)F)c3)C21 (centres undefined)		13.8 µM (inactive)
COc1ccc2c(c1OC)C(=O)N1c3ccccc3C(=O)N(c3ccccc3)C21 (centres undefined)		11 µM (inactive)
O=C1c2ccccc2N2C(=O)c3ccccc3C2N1c1cccc(Br)c1 (centres undefined)		> 79 µM (inactive)
COc1ccc2c(c1OC)C(=O)N1c3ccccc3C(=O)N(c3cccc(Cl)c3)C21 (centres undefined)		12.1 µM (inactive)
COc1ccc2c(c1OC)C(=O)N1c3ccccc3C(=O)N(c3ccc(C)cc3)C21 (centres undefined)	6.02	
COc1cc(-c2cc(C(=O)Nc3cccc(C(C)=O)c3)c3ccccc3n2)cc(OC)c1OC	5.85 and 5.37	
COc1cc(-c2cc(C(=O)Nc3cccc(C(F)(F)F)c3)c3ccccc3n2)cc(OC)c1OC		75.3 µM (inactive)
COc1ccc(-c2cc(C(=O)Nc3cccc(C(C)=O)c3)c3ccccc3n2)cc1OC	5.08	
O=C1c2ccccc2N2C(=O)c3ccccc3C2N1c1ccccc1 (centres undefined)		61.1 µM (inactive)
COc1ccc2c(c1OC)C(=O)N1c3ccccc3C(=O)N(c3ccc(C(C)(C)C)cc3)C21 (centres undefined)	5.26	
COc1ccc2c(c1OC)C(=O)N1c3ccccc3C(=O)N(c3cccc(C)c3)C21 (centres undefined)		17.8 µM (inactive)
COc1ccc2c(c1OC)C(=O)N1c3ccccc3C(=O)N(c3cccc(Br)c3)C21 (centres undefined)		1.75 µM and 12.5 µM (inactive)
COc1cc(-c2cc(C(=O)Nc3cccc(F)c3)c3ccccc3n2)cc(OC)c1OC		10.6 µM (inactive)
COc1cccc(NC(=O)c2cc(-c3cc(OC)c(OC)c(OC)c3)nc3ccccc23)c1	5.09	
COc1cccc(CNC(=O)c2cc(-c3ccc(OC)c(OC)c3)nc3ccccc23)c1	5.24	
COc1cc(-c2cc(C(=O)Nc3ccc(C(C)=O)cc3)c3ccccc3n2)cc(OC)c1OC	5.45	

Reference: PubChem BioAssay AID624458 (Sanford-Burnham Center for Chemical Genomics, 2012)
